Test results as given in patent US6033669A, “Methods for generating cytotoxic T cells and treatment of diseases thereby” (priority 1992, dated 2000).
Non-standard residues stand in square brackets, D forms with d. Residues, ends and D or L forms follow the SMILES beside them. *: point of attachment. CH2CH2O(Galα1-4Galβ) = OC[C@H]1O[C@H](O[C@@H]2[C@H](O)[C@@H](O)[C@H](OCC*)O[C@@H]2CO)[C@H](O)[C@@H](O)[C@H]1O; X1 = OC[C@H]1O[C@H](O[C@@H]2[C@H](O)[C@@H](O)[C@H](*)O[C@@H]2CO)[C@H](O)[C@@H](O)[C@H]1O; hCys = N[C@@H](CCS)C(=O)O

Tests used:
[1] = system: target cells coated with different peptides and glycopeptides; assay: Immunogenicity: mice immunized with glycopeptides, restimulated CTL tested for killing of coated target cells; format: in vivo; conditions: for Comments: Table 5, comment on immunogenicity and cross-reactivity of CTL
[2] = system: RMA-S cells; assay: Membrane expression of the CHO part (Gal2) by antibody staining in FACS; format: cell-based; conditions: data not shown
Protocol: Panel A: RMA-s cells were incubated for 24 hours at 26° C. to induce expression of empty D^b MHC-1 chains at the cell surface, and at 37° C., and stained for D^b expression. Panel B: Removal of D^b expression by pronase treatment of RMA-S cells, preincubated at 26° C. Pronase treatment for 2 h and 4 h. D^b removal is complete at 4 h. Panels C and E: 26° C. induced RMA-S cells were treated with the glycopeptides Gal2 -CSG11 (panel C) or Gal2 CAS10 (panel E), 300 μM for 2 h at 37° C., washed and stained for Gal2 expression. Panels D and F: Glycopeptide treated RMA-S cells as in panels C and E were pronase treated to remove Db and glycopeptide expression, washed and further incubated at 37° C. to allow re-expression of glycopeptides and stained for Gal2 expression.
When the glycopeptide bind to MHC-1, on the cell surface, the expression (and acessibility) of the corresponding CHO part, can be detected by antibody staining in FACS, as described above in relation to FIGS. 10C and E.

[3] = system: monoclonal antibody MC2101; assay: ELISA recognition of Gal2 glycopeptides by monoclonal antibody MC2101; format: binding, mouse; conditions: for Absorbance at 405 nm: antibody MC2101 (specificity Galabios Gal--Gal), peptides coated at 50 μg/ml, pH 9.6
Protocol: (§1) Peptides (50 μg/ml) were diluted in 0.05 M carbonate buffer (pH 9.6) and 100 μl/well was added to flat-bottomed Costar microplates (cat. No 3590) for incubation over-night at 4° C. Plates were washed once with PBS, pre-incubated with […] for 30 minutes at room temperature and washed twice with PBS/0.05% Tween buffer. Monoclonal antibodies were diluted in 0.5% gelatin/PBS/0.05% Tween, added to microplates and incubated for 2 hours at room temperaure, and flick-washed with PBS/Tween. Alkaline phosphatase conjugated rabbit anti-mouse immunoglobulins (Dakopauts code No. S 414) was diluted 1/1000 in PBS/Tween and added as 100 μl/well. After 2 hours incubation at room temperature and 4 washes with PBS/Tween, 100 μl of alkaline phosphatase substrate solution was added. Plates were read after 2 hour at room temperaure, using a Multiskan System (Lab systems), for optical density at 405 nm.
The ELISA assay was performed as described in connection with Table 4.

[4] = system: monoclonal antibody Pk002; assay: ELISA recognition of Gal2 glycopeptides by monoclonal antibody Pk002; format: binding, mouse; conditions: antibody Pk002 (specificity Globotriaosyl Gal--Gal--Glc, CD77); peptides coated at 50 μg/ml, pH 9.6
Protocol: as §1

[5] = system: EL4 target cells

Row | Molecule | Comments [1] | expression of the Gal2 epitope on the surface of cells that have bound glycopeptides (FACS) [2] | Absorbance at 405 nm [3] | Absorbance at 405 nm [4] | also measured
1 | RGYVYQGL [RGY8] | Some RGY8-4h reactivity |  |  |  | 
2 | F A P G h Y P A L [FAP9-5h] | Weaker, low FAP9 reactivity |  |  |  | 
3 | CC(C)C[C@H](NC(=O)CNC(=O)[C@H](CCC(N)=O)NC(=O)[C@H](Cc1ccc(O)cc1)NC(=O)[C@@H](NC(=O)[C@H](Cc1ccc(O)cc1)NC(=O)CNC(=O)[C@H](CCCNC(=N)N)NC(=O)[C@@H](N)CSCCO[C@@H]1O[C@H](CO)[C@H](O[C@H]2O[C@H](CO)[C@H](O)[C@H](O)[C@H]2O)[C@H](O)[C@H]1O)C(C)C)C(=O)O [Gal2 -CRG9] |  | high Gal2 expression |  |  | 
4 | CSCC[C@H](NC(=O)[C@@H](NC(=O)[C@H](CCC(=O)O)NC(=O)[C@H](CCSC)NC(=O)[C@H](CC(N)=O)NC(=O)[C@H](CCC(=O)O)NC(=O)[C@H](CC(N)=O)NC(=O)[C@H](CO)NC(=O)[C@H](C)NC(=O)[C@@H](N)CSCCO[C@@H]1O[C@H](CO)[C@H](O[C@H]2O[C@H](CO)[C@H](O)[C@H](O)[C@H]2O)[C@H](O)[C@H]1O)[C@@H](C)O)C(=O)O [Gal2 -CAS10] |  |  | 0.41 | 0.04 | 
5 | R G Y h Y Q G L [RGY8-4h] | Strong, with RGY8 reactivity |  |  |  | 
6 | CSCC[C@H](NC(=O)[C@@H](NC(=O)[C@H](CCC(=O)O)NC(=O)[C@H](CO[C@@H]1O[C@H](CO)[C@H](O[C@H]2O[C@H](CO)[C@H](O)[C@H](O)[C@H]2O)[C@H](O)[C@H]1O)NC(=O)[C@H](CC(N)=O)NC(=O)[C@H](CCC(=O)O)NC(=O)[C@H](CC(N)=O)NC(=O)[C@H](CO)NC(=O)[C@H](C)N)[C@@H](C)O)C(=O)O [Conjugate A5N9-6S-Gal2] (H-ASNENS(X1)ETM-OH) |  | not recognized |  |  | 
7 | FAP9: K^b binding peptide, SEQ ID NO: 20; sequence not printed (FAPGNYPAL) | Strong, with high FAP9-5h reactivity |  |  |  | 
8 | C A S N E N M E T M (CASNENMETM) [CAS10] |  |  | 0.02 | 0.01 | 
9 | CC[C@H](C)[C@H](NC(=O)[C@H](CCC(=O)O)NC(=O)[C@@H]1CCCN1C(=O)[C@@H]1CCCN1C(=O)[C@@H](NC(=O)[C@H](CC(N)=O)NC(=O)[C@H](CO)NC(=O)[C@@H]1CCCN1C(=O)CNC(=O)[C@H](CO)NC(=O)[C@@H](N)CSCCO[C@@H]1O[C@H](CO)[C@H](O[C@H]2O[C@H](CO)[C@H](O)[C@H](O)[C@H]2O)[C@H](O)[C@H]1O)[C@@H](C)O)C(=O)O [Gal2 -CSG11] |  | high Gal2 expression | 1.86 | 0.04 | reactivity with MC2101 in ELISA, comparison [3]: reacted stronger than the GAL2 -CAS10 peptide
10 | ASNENMDAM [pep 9(NT60)] |  |  |  |  | lysis of virus specific and peptide-coated EL4 cells by induced CTL ([5]; 0.05 μM used for restimulation versus 5 μM and 0.5 μM, 100 μg s.c.): more efficiently lysed; anti-peptide and antiviral CTL responses ([5]; compared with pep 9(PR8), FIG. 3): stronger anti-peptide and antiviral CTL responses; specificity of induced CTL ([5]; mouse, in vivo): preferentially killed their corresponding peptide-coated and virus-infected cells
11 | CC(C)C[C@H](NC(=O)[C@H](CSCCO[C@@H]1O[C@H](CO)[C@H](O[C@H]2O[C@H](CO)[C@H](O)[C@H](O)[C@H]2O)[C@H](O)[C@H]1O)NC(=O)[C@H](Cc1ccc(O)cc1)NC(=O)CNC(=O)CNC(=O)[C@@H]1CCCN1C(=O)[C@H](CC(N)=O)NC(=O)[C@H](CCC(=O)O)NC(=O)[C@@H](NC(=O)CNC(=O)[C@@H](N)CO)C(C)C)C(=O)N[C@H](C(=O)O)[C@@H](C)O [SGV12-Gal2] |  | high Gal2 expression |  |  | killing of EL-4 cells coated with glycopeptide 7 by generated CTL ([1]; FIG. 13): at a lower level; killing of EL-4 cells coated with glycopeptides 2 and 5 by generated CTL ([1]; FIG. 13): killed; recognition of carrier peptide alone (SGV12) and other control peptides by generated CTL ([1]; FIG. 13): did not recognize the carrier peptide alone; type of T cell response generated by immunization ([1]; mouse, in vivo): Gal2 specific T cell response
12 | CSGPSNTPPEI [CSG11] |  |  | 0.01 | 0.08 | 
13 | CC(C)C[C@H](NC(=O)CNC(=O)[C@H](CCC(N)=O)NC(=O)[C@H](Cc1ccc(O)cc1)NC(=O)[C@H](CCSCCO[C@@H]1O[C@H](CO)[C@H](O[C@H]2O[C@H](CO)[C@H](O)[C@H](O)[C@H]2O)[C@H](O)[C@H]1O)NC(=O)[C@H](Cc1ccc(O)cc1)NC(=O)CNC(=O)[C@@H](N)CCCNC(=N)N)C(=O)O [RGY8-4h-Gal2] (H-RGY[hCys](CH2CH2O(Galα1-4Galβ))YQGL-OH) |  |  |  |  | CTL generated, tested against EL-4 cells coated with RGY8-4 h-Gal2 and RGY8-4 h ([1]; FIG. 14(A)): both peptide and glycopeptide specific CTL cells are generated; killing of EL-4 cells coated with SGV12-Gal2 or SGV12 by generated CTL ([1]; FIG. 14(B), criss-cross): only the cells coated with glycopeptide were killed
